We go through 21 compounds from ChEMBL document CHEMBL3400125, “Discovery of novel 2-(alkylmorpholin-4-yl)-6-(3-fluoropyridin-4-yl)-pyrimidin-4(3H)-ones as orally-active GSK-3β inhibitors for Alzheimer's disease” (Bioorg Med Chem Lett, 2015).

Data set [1] can be described thus: Intrinsic clearance in human liver microsomes. In kind it is ADME. A general note: Liver microsomes are vesicles of endoplasmic reticulum, rich in cytochrome P450 enzymes.
The next data set has as its target Cytochrome P450 3A4 (Homo sapiens, UniProt P08684). The data set can be described thus: Inhibition of recombinant human CYP3A4. In kind it is ADME.
Data set [2] concerns the target Glycogen synthase kinase-3 beta (Homo sapiens, UniProt P49841). The data set is described as follows: Inhibition of human recombinant GSK3beta assessed as inhibition of [gamma32P]ATP after 1 hr by liquid scintillation counting in presence of prephosphorylated GS1 peptide.
The next data set concerns the target Cytochrome P450 2D6 (Homo sapiens, UniProt P10635). The data set is described as follows: Inhibition of recombinant human CYP2D6. In kind it is ADME.
A further data set concerns the target T1, Cytochrome P450 1A2 (Homo sapiens, UniProt P05177).
T1 sequence (P05177 whole entry): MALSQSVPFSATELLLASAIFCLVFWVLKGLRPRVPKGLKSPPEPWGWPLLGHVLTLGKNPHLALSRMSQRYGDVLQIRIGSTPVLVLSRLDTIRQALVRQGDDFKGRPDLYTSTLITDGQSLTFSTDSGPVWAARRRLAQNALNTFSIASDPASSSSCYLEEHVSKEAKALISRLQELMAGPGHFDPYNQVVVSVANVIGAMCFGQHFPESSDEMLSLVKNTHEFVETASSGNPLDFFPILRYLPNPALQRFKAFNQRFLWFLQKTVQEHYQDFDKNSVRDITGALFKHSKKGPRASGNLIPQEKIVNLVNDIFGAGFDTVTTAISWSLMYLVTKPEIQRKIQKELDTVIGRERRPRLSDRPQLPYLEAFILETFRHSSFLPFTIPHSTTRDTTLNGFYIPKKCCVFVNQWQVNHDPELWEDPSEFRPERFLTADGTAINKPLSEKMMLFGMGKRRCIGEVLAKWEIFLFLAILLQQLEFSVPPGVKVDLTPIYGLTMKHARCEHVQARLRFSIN
The data set can be described thus: Inhibition of recombinant human CYP1A2. Format: ADME.

Data set [3] can be described thus: Permeability across human Caco2 cells. In kind it is ADME, cell-based. As to conditions: Caco-2, read-out: permeability. On the technique in general: Caco-2 monolayers are a common model of the intestinal barrier.
Another data set relates to Mus musculus. The data set can be described thus: Inhibition of GSK3beta-mediated tau phosphorylation at Ser396 residue in po dosed CD-1 mouse measured 1 hr post dose. Format: functional. The settings on record: CD-1, po.

Sequence of Cytochrome P450 2D6 (P10635 whole entry): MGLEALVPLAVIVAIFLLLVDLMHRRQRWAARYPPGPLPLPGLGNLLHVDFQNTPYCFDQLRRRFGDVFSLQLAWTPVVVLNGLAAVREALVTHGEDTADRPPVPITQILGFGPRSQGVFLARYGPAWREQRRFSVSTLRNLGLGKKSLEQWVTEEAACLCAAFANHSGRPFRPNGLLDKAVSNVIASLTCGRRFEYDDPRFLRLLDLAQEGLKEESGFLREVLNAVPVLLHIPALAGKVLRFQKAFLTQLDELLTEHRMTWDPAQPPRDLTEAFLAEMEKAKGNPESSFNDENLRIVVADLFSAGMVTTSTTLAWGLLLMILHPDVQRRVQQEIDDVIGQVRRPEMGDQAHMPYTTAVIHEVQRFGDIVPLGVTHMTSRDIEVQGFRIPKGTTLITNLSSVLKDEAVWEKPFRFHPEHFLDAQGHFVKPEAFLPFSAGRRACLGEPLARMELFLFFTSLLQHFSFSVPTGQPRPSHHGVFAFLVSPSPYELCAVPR
Sequence of Cytochrome P450 3A4 (P08684 whole entry): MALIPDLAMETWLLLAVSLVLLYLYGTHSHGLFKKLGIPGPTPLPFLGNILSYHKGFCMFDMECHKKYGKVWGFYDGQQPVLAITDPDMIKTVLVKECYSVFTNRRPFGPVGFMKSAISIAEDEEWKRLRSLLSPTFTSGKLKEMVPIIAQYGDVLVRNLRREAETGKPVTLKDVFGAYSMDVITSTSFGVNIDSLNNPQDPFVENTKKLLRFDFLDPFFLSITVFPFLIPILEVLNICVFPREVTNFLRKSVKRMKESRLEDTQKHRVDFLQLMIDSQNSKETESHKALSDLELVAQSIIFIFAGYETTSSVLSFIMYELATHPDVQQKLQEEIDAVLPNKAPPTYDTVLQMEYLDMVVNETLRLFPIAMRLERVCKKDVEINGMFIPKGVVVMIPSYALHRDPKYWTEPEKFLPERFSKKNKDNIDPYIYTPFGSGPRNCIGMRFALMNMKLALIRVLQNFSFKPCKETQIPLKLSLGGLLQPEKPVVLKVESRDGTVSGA
Sequence of Glycogen synthase kinase-3 beta (P49841 whole entry): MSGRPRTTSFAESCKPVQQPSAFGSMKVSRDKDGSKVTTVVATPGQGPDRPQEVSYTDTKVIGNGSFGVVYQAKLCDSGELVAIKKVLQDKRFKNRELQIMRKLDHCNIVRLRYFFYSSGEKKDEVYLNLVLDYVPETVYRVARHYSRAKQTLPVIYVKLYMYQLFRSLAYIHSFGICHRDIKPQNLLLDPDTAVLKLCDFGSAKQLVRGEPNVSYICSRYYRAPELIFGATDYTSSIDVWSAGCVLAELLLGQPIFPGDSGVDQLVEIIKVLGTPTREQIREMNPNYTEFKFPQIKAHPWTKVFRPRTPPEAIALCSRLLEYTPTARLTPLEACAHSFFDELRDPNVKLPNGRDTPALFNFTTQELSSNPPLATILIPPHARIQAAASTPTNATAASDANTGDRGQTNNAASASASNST

For the compound `Cn1c(N2CCO[C@@H](c3ccc(F)cc3)C2)nc(-c2ccncn2)cc1=O`, the intrinsic metabolic clearance (CLint scaled) (usually the capacity of the preparation to metabolise the compound, expressed as a volume cleared per time) in data set [1] was 60 µL/min/mg. Moreover, the half-maximal inhibitory concentration (IC50) (usually the concentration that inhibits the measured activity by half) on Cytochrome P450 3A4 was more than 50000 nM.

With `Cn1c(N2CCOCC2)nc(-c2ccncc2F)cc1=O`, the IC50 in data set [2] was 67 nM.

`C[C@@H]1COCCN1c1nc(-c2ccncc2F)cc(=O)n1C` showed an intrinsic clearance (CLint scaled) in data set [1] of 30 µL/min/mg. Moreover, the half-maximal inhibitory concentration (IC50) was 7 nM in data set [2], more than 50000 nM at Cytochrome P450 2D6, 18700 nM at Cytochrome P450 1A2 and more than 50000 nM at Cytochrome P450 3A4. For the same compound, the Papp in data set [3] amounted to 54.6 ×10⁻⁶ cm/s. Besides, the ED50 (usually the dose that gives a 50% effect, or the effect in half of the subjects) with Mus musculus was found to be 6.8 mg/kg.

In the case of `CC[C@@H]1COCCN1c1nc(-c2ccncc2F)cc(=O)n1C`, in data set [2], the IC50 was 19 nM.

With `CC(C)[C@@H]1COCCN1c1nc(-c2ccncc2F)cc(=O)n1C`, the half-maximal inhibitory concentration (IC50) in data set [2] came to 14 nM.

As for `C[C@H]1COCCN1c1nc(-c2ccncc2F)cc(=O)n1C`, the CLint scaled in data set [1] was 20 µL/min/mg. Besides, the concentration for half-maximal inhibition (IC50) in data set [2] was 23 nM; on Cytochrome P450 2D6 it was more than 50000 nM; at Cytochrome P450 1A2 it was 5700 nM; on Cytochrome P450 3A4, more than 50000 nM.

On to `CC[C@H]1COCCN1c1nc(-c2ccncc2F)cc(=O)n1C`, for which the IC50 in data set [2] is 30 nM.

Take `C[C@@H]1CN(c2nc(-c3ccncc3F)cc(=O)n2C)[C@H](C)CO1`: in data set [2], the half-inhibitory concentration (IC50) is 453 nM.

With `C[C@@H]1CO[C@@H](C)CN1c1nc(-c2ccncc2F)cc(=O)n1C`, the IC50 in data set [2] stood at 41 nM.

For `C[C@@H]1OCCN(c2nc(-c3ccncc3F)cc(=O)n2C)[C@H]1C`, in data set [2], the IC50 came to 19 nM.

Turning to `C[C@@H]1[C@@H](C)OCCN1c1nc(-c2ccncc2F)cc(=O)n1C`, the IC50 in data set [2] is 4.9 nM; on Cytochrome P450 2D6, more than 50000 nM; at Cytochrome P450 1A2 it was 16000 nM; at Cytochrome P450 3A4 it was more than 50000 nM. Besides, the Papp in data set [3] stood at 48.5 ×10⁻⁶ cm/s.

With `Cn1c(N2CCO[C@@H]3CCC[C@H]32)nc(-c2ccncc2F)cc1=O`, in data set [1], the intrinsic metabolic clearance (CLint scaled) stood at 40 µL/min/mg. The IC50 in data set [2] is 4.2 nM; at Cytochrome P450 2D6, more than 50000 nM; on Cytochrome P450 1A2, 21000 nM; at Cytochrome P450 3A4 it was more than 50000 nM. Also, in data set [3], the Papp was 44.5 ×10⁻⁶ cm/s.

With `Cn1c(N2CCO[C@H]3CCC[C@@H]32)nc(-c2ccncc2F)cc1=O`, in data set [2], the IC50 is 35 nM.

`Cn1c(N2CCO[C@@H]3CCCC[C@H]32)nc(-c2ccncc2F)cc1=O` registered a CLint scaled in data set [1] of 200 µL/min/mg. Also, the IC50 in data set [2] was 3.7 nM; on Cytochrome P450 2D6, more than 50000 nM; on Cytochrome P450 1A2, 14000 nM; on Cytochrome P450 3A4 it was more than 50000 nM. Besides, the Papp in data set [3] worked out at 41.8 ×10⁻⁶ cm/s.

With `Cn1c(N2CCO[C@@H]3COC[C@H]32)nc(-c2ccncc2F)cc1=O`, in data set [1], the intrinsic metabolic clearance (CLint scaled) came to 20 µL/min/mg. Also, the 50% inhibitory concentration (IC50) was 3.1 nM in data set [2], more than 50000 nM on Cytochrome P450 2D6, more than 50000 nM at Cytochrome P450 1A2 and more than 50000 nM at Cytochrome P450 3A4. The Papp in data set [3] is 54.5 ×10⁻⁶ cm/s.

`CC(C)C1CN(c2nc(-c3ccncc3F)cc(=O)n2C)CCO1` (racemic): the intrinsic metabolic clearance (CLint scaled) in data set [1] was determined as 70 µL/min/mg. Further, the IC50 was 17 nM in data set [2], more than 50000 nM at Cytochrome P450 2D6, 3300 nM at Cytochrome P450 1A2 and more than 50000 nM on Cytochrome P450 3A4.

The compound `CCCCC1CN(c2nc(-c3ccncc3F)cc(=O)n2C)CCO1` (racemic) yielded an intrinsic metabolic clearance (CLint scaled) in data set [1] of 210 µL/min/mg. Besides, the half-maximal inhibitory concentration (IC50) in data set [2] was 12 nM; on Cytochrome P450 2D6, 2300 nM; at Cytochrome P450 1A2 it was 7500 nM; at Cytochrome P450 3A4, more than 50000 nM.

On to `Cn1c(N2CCOC(C3CCC3)C2)nc(-c2ccncc2F)cc1=O` (racemic), for which the CLint scaled in data set [1] came to 200 µL/min/mg. For the same compound, the IC50 in data set [2] is 12 nM; at Cytochrome P450 2D6 it was 37700 nM; at Cytochrome P450 1A2, 1500 nM; at Cytochrome P450 3A4, more than 50000 nM.

For the compound `CC1N(c2nc(-c3ccncc3F)cc(=O)n2C)CCOC1(C)C` (racemic), the half-inhibitory concentration (IC50) in data set [2] is 9.7 nM.

Regarding `C[C@@H]1OCCN(c2nc(-c3ccncc3F)cc(=O)n2C)[C@@H]1C` (stereo in doubt; 13), the IC50 in data set [2] was determined as 16 nM.

Regarding `C[C@@H]1OCCN(c2nc(-c3ccncc3F)cc(=O)n2C)[C@@H]1C` (stereo in doubt; 14), the half-inhibitory concentration (IC50) in data set [2] stood at 32 nM.
